Reference: ChEMBL document CHEMBL1138003, “Small molecule inhibitors of the CCR2b receptor. Part 1: Discovery and optimization of homopiperazine derivatives” (Bioorg Med Chem Lett, 2004)
pEC50, pIC50: −log10 of the molar value.

Assays:
[1] = target: T1, C-C chemokine receptor type 2 (Homo sapiens, UniProt P41597); assay: Percent inhibition of […] (Monocyte Chemoattractant Protein-1) binding to THP-1 cells at 100 uM; type: cell-based
Target sequence in this assay (P41597 whole entry, looked up): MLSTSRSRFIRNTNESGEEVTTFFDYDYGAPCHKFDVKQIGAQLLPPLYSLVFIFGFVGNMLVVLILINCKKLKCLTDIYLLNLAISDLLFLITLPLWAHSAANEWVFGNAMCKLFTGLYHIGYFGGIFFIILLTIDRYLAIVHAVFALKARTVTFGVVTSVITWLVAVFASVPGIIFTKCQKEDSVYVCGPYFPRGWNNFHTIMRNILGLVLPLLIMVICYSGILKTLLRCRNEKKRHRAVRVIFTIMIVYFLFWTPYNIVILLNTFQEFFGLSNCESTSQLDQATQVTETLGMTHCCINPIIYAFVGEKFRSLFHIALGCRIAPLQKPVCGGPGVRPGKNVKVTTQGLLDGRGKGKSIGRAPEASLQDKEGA

[2] = target: T1, C-C chemokine receptor type 2; assay: Concentration required to inhibit [125I]MCP-1 (Monocyte Chemoattractant Protein-1) binding to THP-1 cell; type: cell-based
Target sequence in this assay (P41597 whole entry): as the sequence (P41597 whole entry, looked up) above

[3] = target: T1, C-C chemokine receptor type 2; assay: Percent inhibition of [125I]MCP-1 (Monocyte Chemoattractant Protein-1) binding to THP-1 cells at 100 uM; type: cell-based
Target sequence in this assay (P41597 whole entry, looked up): as above

[4] = Effective concentration in a chemotaxis assay; type: functional
[5] = target: T1, C-C chemokine receptor type 2; assay: Concentration required to inhibit [125I]MCP-1 (Monocyte Chemoattractant Protein-1) binding to THP-1 cell; not determined; type: cell-based
Target sequence in this assay (P41597 whole entry): as the sequence (P41597 whole entry, looked up) above

| SMILES | inhibition [1] | pIC50 [2] | inhibition [3] | further results |
| --- | --- | --- | --- | --- |
| FC(F)(F)c1ccc(CN2CCCN(CCC(c3ccccc3)c3ccccc3)CC2)cc1 | 25% |  |  |  |
| COc1ccc(CN2CCCN(CCC(c3ccccc3)c3ccccc3)CC2)cc1 | 7% |  |  |  |
| Cc1csc(C(=O)NNC(=O)CN2CCCN(Cc3ccc(Cl)cc3)CC2)c1 |  | 5.13 |  | pEC50 [4]: 5.02 |
| O=[N+]([O-])c1ccccc1CN1CCCN(CCC(c2ccccc2)c2ccccc2)CC1 | 7% |  |  |  |
| COC(=O)c1ccc(CN2CCCN(CCC(c3ccccc3)c3ccccc3)CC2)cc1 | 1% |  |  |  |
| O=[N+]([O-])c1cccc(CN2CCCN(CCC(c3ccccc3)c3ccccc3)CC2)c1 | 35% |  |  |  |
| Cc1ccccc1C(O)(CCN1CCCN(Cc2ccc(S(C)(=O)=O)cc2)CC1)c1ccccc1C |  |  | 0% |  |
| COc1ccccc1C(O)(CCN1CCCN(Cc2ccc(S(C)(=O)=O)cc2)CC1)c1ccccc1OC |  |  | 14% |  |
| c1ccc(C(CCN2CCCN(Cc3ccccn3)CC2)c2ccccc2)cc1 | 35% |  |  |  |
| c1ccc(CN2CCCN(CCC(c3ccccc3)c3ccccc3)CC2)cc1 | 24% |  |  |  |
| CS(=O)(=O)c1ccc(CN2CCCN(CCC(O)(c3ccc(-c4ccccc4)cc3)c3ccc(-c4ccccc4)cc3)CC2)cc1 |  |  | 0% |  |
| O=[N+]([O-])c1ccc(CN2CCCN(CCC(c3ccccc3)c3ccccc3)CC2)cc1 | 87% | 4.72 |  |  |
| CC(C)(C)c1ccc(C(O)(CCN2CCCN(Cc3ccc(S(C)(=O)=O)cc3)CC2)c2ccc(C(C)(C)C)cc2)cc1 |  |  | 39% |  |
| O=C(CN1CCCN(Cc2ccc(Cl)cc2)CC1)NNC(=O)c1cccs1 |  | 4.52 |  |  |
| c1ccc(C(CCN2CCCN(Cc3cccnc3)CC2)c2ccccc2)cc1 | 69% |  |  |  |
| Clc1ccc(CN2CCCN(CCC(c3ccccc3)c3ccccc3)CC2)cc1 | 8% |  |  |  |
| Cc1csc(C(=O)NNC(=O)CN2CCCN(CCC(O)(c3ccccc3)c3cccc(O)c3)CC2)c1 (stereo not given) |  | 5.19 |  |  |
| O=C(CN1CCCN(CCC(O)(c2ccccc2)c2cccc(O)c2)CC1)NNC(=O)c1cccs1 (stereo not given) |  | 4.55 |  |  |
| CS(=O)(=O)c1ccc(CN2CCCN(CCC(O)(c3ccc(C(F)(F)F)cc3)c3ccc(C(F)(F)F)cc3)CC2)cc1 |  |  | 38% |  |
| CN(C)c1ccc(C(O)(CCN2CCCN(Cc3ccc(S(C)(=O)=O)cc3)CC2)c2ccc(N(C)C)cc2)cc1 |  | 4.35 | 68% |  |
| CCCN1CCCN(CCC(c2ccccc2)c2ccccc2)CC1 | 15% |  |  |  |
| N#Cc1ccc(CN2CCCN(CCC(c3ccccc3)c3ccccc3)CC2)cc1 | 74% | 4.37 |  |  |
| CS(=O)(=O)c1ccc(CN2CCCN(CCC(c3ccccc3)c3ccccc3)CC2)cc1 | 91% | 4.89 |  |  |
| CS(=O)(=O)c1ccc(CN2CCCN(Cc3ccc(Cl)cc3)CC2)cc1 |  | < 4.00 |  |  |
| c1ccc(C(CCN2CCCN(Cc3ccncc3)CC2)c2ccccc2)cc1 | 87% | 4.96 |  |  |

Continued, in another order:

| inhibition [1] | pIC50 [2] | inhibition [3] | SMILES | further results |
| --- | --- | --- | --- | --- |
|  | 5.35 | 99% | CS(=O)(=O)c1ccc(CN2CCCN(CCC(O)(c3cccc(O)c3)c3cccc(Cl)c3)CC2)cc1 (stereo not given) |  |
|  | 4.68 | 83% | CS(=O)(=O)c1ccc(CN2CCCN(CCC(O)(c3ccc(O)cc3)c3ccc(O)cc3)CC2)cc1 |  |
|  | 5.82 |  | NS(=O)(=O)c1ccc(CN2CCCN(CCC(O)(c3ccccc3)c3cccc(O)c3)CC2)cc1 (stereo not given) |  |
|  | 4.96 | 94% | CS(=O)(=O)c1ccc(CN2CCCN(CCC(O)(c3ccc(Cl)cc3)c3ccc(Cl)cc3)CC2)cc1 |  |
|  | 5.15 | 100% | CS(=O)(=O)c1ccc(CN2CCCN(CCC(O)(c3ccc(F)cc3)c3ccc(F)cc3)CC2)cc1 |  |
|  | 4.92 | 95% | CS(=O)(=O)c1ccc(CN2CCCN(CCC(O)(c3ccccc3)c3cccc(F)c3)CC2)cc1 (stereo not given) |  |
|  | 5.82 | 105% | CS(=O)(=O)c1ccc(CN2CCCN(CCC(O)(c3ccc(F)cc3)c3cccc(O)c3)CC2)cc1 (stereo not given) |  |
|  |  | 108% | CS(=O)(=O)c1ccc(CN2CCCN(CCC(O)(c3cccc(O)c3)c3cccc(O)c3)CC2)cc1 | pIC50 [5]: 5.82 |
|  | 5.03 | 107% | CS(=O)(=O)c1ccc(CN2CCCN(CCC(O)(c3cccc(O)c3)c3cc(F)cc(F)c3)CC2)cc1 (stereo not given) |  |
|  |  | 38% | COc1cccc(C(O)(CCN2CCCN(Cc3ccc(S(C)(=O)=O)cc3)CC2)c2cccc(OC)c2)c1 |  |
|  | 5.82 | 104% | CS(=O)(=O)c1ccc(CN2CCCN(CCC(O)(c3ccc(Cl)cc3)c3cccc(O)c3)CC2)cc1 (stereo not given) |  |
|  | 5.62 | 104% | CS(=O)(=O)c1ccc(CN2CCCN(CCC(O)(c3cccc(O)c3)c3cccc(F)c3)CC2)cc1 (stereo not given) |  |
|  |  | 28% | CS(=O)(=O)c1ccc(CN2CCCN(CCC(O)(c3cccc(Cl)c3)c3cccc(Cl)c3)CC2)cc1 |  |
|  | 6.15 | 105% | CS(=O)(=O)c1ccc(CN2CCCN(CCC(O)(c3ccccc3)c3cccc(O)c3)CC2)cc1 (stereo not given) |  |
|  | 5.10 | 97% | COc1cccc(C(O)(CCN2CCCN(Cc3ccc(S(C)(=O)=O)cc3)CC2)c2ccccc2)c1 (stereo not given) |  |
|  | 4.80 | 92% | Cc1cccc(C(O)(CCN2CCCN(Cc3ccc(S(C)(=O)=O)cc3)CC2)c2ccccc2)c1 (stereo not given) |  |
|  | 5.30 | 87% | CNc1cccc(C(O)(CCN2CCCN(Cc3ccc(S(C)(=O)=O)cc3)CC2)c2ccccc2)c1 (stereo not given) |  |
|  | 4.47 | 75% | CS(=O)(=O)c1ccc(CN2CCCN(CCC(O)(c3cccc(F)c3)c3cccc(F)c3)CC2)cc1 |  |
|  | 5.38 | 102% | CS(=O)(=O)c1ccc(CN2CCCN(CCC(O)(c3ccccc3)c3cccc(N)c3)CC2)cc1 (stereo not given) |  |
|  | 5.40 | 100% | CS(=O)(=O)c1ccc(CN2CCCN(CCC(O)(c3ccccc3)c3cccc(CO)c3)CC2)cc1 (stereo not given) |  |
|  | 5.39 | 104% | CS(=O)(=O)c1ccc(CN2CCCN(CCC(O)(c3ccccc3)c3ccccc3)CC2)cc1 |  |
